Laboratory results published in PubChem BioAssay (NCI).
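Cells were grown in 96-well plates and exposed to each compound for 48 hours at five concentrations; endpoints were interpolated linearly between bracketing concentrations, or set to the highest concentration if not reached. TGI: total growth inhibition.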

tested on: NCI-H23 lung; test: growth of human tumour cells (NCI), 48 h

Structure (SMILES)	TGI [µM]
N#Cc1cccc(-n2[nH]c(=O)ccc2=O)c1	> 100
Cc1ccc(S[C@@H](C)[C@@](O)(CF)CN(Cc2ccccc2)C(=O)C(F)(F)F)cc1	56.7
CCN(CC)CCCNC(=O)c1cc(-c2nccn2C)nc2ccccc12	> 100
O=C1/C(=C/c2ccco2)NC(=S)N1CN1CCCCC1	> 100
Nc1nc(Cl)cc(OCC2(CO)CC=CC2)n1	> 100
CCOC(=O)CCCSCCCC(=O)CCCSCCCC(=O)OCC	> 100
O=C1/C(=C\c2ccc(Cl)cc2Cl)Sc2scc(-c3ccc(O)c(O)c3)[n+]21	31.3
CCOC(=O)C(=[N+]=[N-])C(=O)CN1C(=O)c2ccccc2C1=O	> 100

tested on: HCT-15 colon; test: growth of human tumour cells (NCI), 48 h

Structure (SMILES)	TGI [µM]
CCCCCCc1cc2cc(-c3cn4ccsc4n3)c(=O)oc2cc1O	> 100
COC(=O)[C@]1(C)CCC[C@@]2(C)C1CC[C@@]13C=C(C(C)C)[C@@H](CC1=O)CC23 (stereo not given in full)	45.4
Cc1nn(C(=O)Cc2ccccc2)c2c1C(c1ccccc1)SC(N)=N2 (stereo not given)	> 100
CCNC(=O)c1ccc(C)c(N=NN(C)C)c1	> 100
C=CCNC(=S)N/C=C(\C#N)C(N)=O	> 100
CCOC(=O)c1cc(-c2ccc(OC)cc2)c([N+](=O)[O-])n1C	> 10
COc1ccc(C2=CC(C(C)=C(C(N)=O)C(N)=O)C=C(c3ccc(Br)cc3)C2)c(OC)c1 (stereo not given)	> 100
O=C1c2sc(-c3ccc(Cl)cc3)cc2-n2cccc21	> 100
CC(C)C(NC(=O)Oc1ccccc1)C(=O)NC1c2c(Br)sc(Br)c2C(=O)C1O (stereo not given)	8.39
COCCOCOC(CCCCO)c1cc(C)c(O[Si](C)(C)C(C)(C)C)c(C)c1 (stereo not given)	21.1
CSC(=O)c1sc(SC)[n+](-c2ccccc2)c1O	54.3
CC1=NN(c2nc(N)nc(COc3ccc(N)cc3)n2)C(C)(C)C1	> 100
Cc1cc(OC(=O)Nc2cccc3ccccc23)c(C(C)C)cc1C(=S)Nc1ccccc1	29.2
CC(=O)OCCOCNC(=S)N/N=C/c1ccc([N+](=O)[O-])o1	> 100
COc1cc2c(/C=C3/C(=O)Nc4cccc(Cl)c43)c(Cl)[nH]c2cc1C	4.29
Nc1ncc2c(n1)-c1ccccc1OC2N1CCCCC1 (stereo not given)	> 100
COc1cc(C2C(Cl)C(=O)N2n2cnc3ccccc3c2=O)ccc1O (stereo not given)	> 100

Structure (SMILES)	TGI [µM]
C[C@]12c3c4cc(NC(=O)C(=O)NCc5ccc(-c6ccccn6)nc5)cc3Oc3cc(NC(=O)C(=O)NCc5ccc(-c6ccccn6)nc5)cc(c31)OC1C=C(NC(=O)C(=O)NCc3ccc(-c5ccccn5)nc3)C=C(O4)C12 (stereo not given in full)	> 100
COc1ccc(C2Oc3cc(OC)c(OC)cc3C2CCl)cc1OC (stereo not given)	> 100
COC(=O)c1cccc(C)c1C1CN=NC12Cc1cc(C)cc(C)c1C2=O (stereo not given)	> 100
COc1cc(OCCN(C)C)c2[nH]c(C(=O)N3CC(CCl)c4ccc(N)cc43)cc2c1 (stereo not given)	1.58
O=C1c2ccccc2-n2nnnc2C2CSCN12 (stereo not given)	> 100
O=c1[nH]c(=O)c2c3n(cc2[nH]1)CCCCC3	> 100
COc1ccc(NC(=S)c2ccc(CN3CCCCC3)s2)cc1	26.9
N#Cc1cccc(-n2[nH]c(=O)ccc2=O)c1	> 100
Cc1ccc(S[C@@H](C)[C@@](O)(CF)CN(Cc2ccccc2)C(=O)C(F)(F)F)cc1	55.5
CCN(CC)CCCNC(=O)c1cc(-c2nccn2C)nc2ccccc12	> 100
O=C1/C(=C/c2ccco2)NC(=S)N1CN1CCCCC1	> 100
Nc1nc(Cl)cc(OCC2(CO)CC=CC2)n1	> 100
CCOC(=O)CCCSCCCC(=O)CCCSCCCC(=O)OCC	> 100
CC(C)=C[C@H]1C[C@H](C)[C@H]2CC[C@H](C)c3c2c1c(C)c1ncoc31	34.8
O=C1/C(=C\c2ccc(Cl)cc2Cl)Sc2scc(-c3ccc(O)c(O)c3)[n+]21	30.1
CCOC(=O)C(=[N+]=[N-])C(=O)CN1C(=O)c2ccccc2C1=O	> 100

tested on: MALME-3M melanoma; test: growth of human tumour cells (NCI), 48 h

Structure (SMILES)	TGI [µM]
Cc1nn(C(=O)Cc2ccccc2)c2c1C(c1ccccc1)SC(N)=N2 (stereo not given)	> 100
C=CCNC(=S)N/C=C(\C#N)C(N)=O	> 100
CCOC(=O)c1cc(-c2ccc(OC)cc2)c([N+](=O)[O-])n1C	> 10
O=C1c2sc(-c3ccc(Cl)cc3)cc2-n2cccc21	> 100
CC(C)C(NC(=O)Oc1ccccc1)C(=O)NC1c2c(Br)sc(Br)c2C(=O)C1O (stereo not given)	15.5
COCCOCOC(CCCCO)c1cc(C)c(O[Si](C)(C)C(C)(C)C)c(C)c1 (stereo not given)	13.3
CSC(=O)c1sc(SC)[n+](-c2ccccc2)c1O	56.6
Cc1cc(OC(=O)Nc2cccc3ccccc23)c(C(C)C)cc1C(=S)Nc1ccccc1	36.8
CC(=O)OCCOCNC(=S)N/N=C/c1ccc([N+](=O)[O-])o1	> 100
COc1cc(C2C(Cl)C(=O)N2n2cnc3ccccc3c2=O)ccc1O (stereo not given)	> 100
COc1ccc(C2Oc3cc(OC)c(OC)cc3C2CCl)cc1OC (stereo not given)	> 100
COC(=O)c1cccc(C)c1C1CN=NC12Cc1cc(C)cc(C)c1C2=O (stereo not given)	> 100
O=C1c2ccccc2-n2nnnc2C2CSCN12 (stereo not given)	> 100
O=c1[nH]c(=O)c2c3n(cc2[nH]1)CCCCC3	> 100
